Measured values reported in ChEMBL document CHEMBL5465560, “Selectivity Literature for EUbOPEN Chemogenomic Library” (2024).
Values belong to the compound of their own block, whether it stands above or below them.

Columns and labels:
[1] = target: Casein kinase I isoform alpha (Homo sapiens, UniProt P48729); test: Selectivity interaction (ActivX KiNativ screen (kinase selectivity in THP-1 cell lysates)) EUB0000639a CSNK1A1; assay type: subcellular; settings: lysate, at 0.2 µM
[2] = target: T1, Dual specificity mitogen-activated protein kinase kinase 3 (Homo sapiens) (UniProt P46734); test: Selectivity interaction (ActivX KiNativ screen (kinase selectivity in THP-1 cell lysates)) EUB0000639a MAP2K3; assay type: subcellular; settings: lysate, at 1 µM
T1 sequence (whole entry): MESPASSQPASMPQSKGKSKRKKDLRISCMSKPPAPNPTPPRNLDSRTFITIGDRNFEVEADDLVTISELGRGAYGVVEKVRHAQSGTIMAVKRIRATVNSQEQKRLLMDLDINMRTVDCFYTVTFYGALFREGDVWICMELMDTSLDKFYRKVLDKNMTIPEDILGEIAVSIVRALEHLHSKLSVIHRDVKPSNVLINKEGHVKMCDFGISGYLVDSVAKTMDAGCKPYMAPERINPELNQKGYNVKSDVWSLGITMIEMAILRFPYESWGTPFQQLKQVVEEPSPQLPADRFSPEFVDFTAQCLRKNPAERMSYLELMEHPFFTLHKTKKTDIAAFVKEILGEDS

[3] = target: Non-receptor tyrosine-protein kinase TYK2 (Homo sapiens, UniProt P29597); test: Selectivity interaction (Kinase panel (33PanQinase(R) Activity Assay)) EUB0000877a TYK2
[4] = target: T2, Protein kinase C epsilon type (Homo sapiens) (UniProt Q02156); test: Selectivity interaction (Kinase panel (Z-LYTE Assay)) EUB0001632a PRKCE; settings: at 10 µM
T2 sequence (whole entry): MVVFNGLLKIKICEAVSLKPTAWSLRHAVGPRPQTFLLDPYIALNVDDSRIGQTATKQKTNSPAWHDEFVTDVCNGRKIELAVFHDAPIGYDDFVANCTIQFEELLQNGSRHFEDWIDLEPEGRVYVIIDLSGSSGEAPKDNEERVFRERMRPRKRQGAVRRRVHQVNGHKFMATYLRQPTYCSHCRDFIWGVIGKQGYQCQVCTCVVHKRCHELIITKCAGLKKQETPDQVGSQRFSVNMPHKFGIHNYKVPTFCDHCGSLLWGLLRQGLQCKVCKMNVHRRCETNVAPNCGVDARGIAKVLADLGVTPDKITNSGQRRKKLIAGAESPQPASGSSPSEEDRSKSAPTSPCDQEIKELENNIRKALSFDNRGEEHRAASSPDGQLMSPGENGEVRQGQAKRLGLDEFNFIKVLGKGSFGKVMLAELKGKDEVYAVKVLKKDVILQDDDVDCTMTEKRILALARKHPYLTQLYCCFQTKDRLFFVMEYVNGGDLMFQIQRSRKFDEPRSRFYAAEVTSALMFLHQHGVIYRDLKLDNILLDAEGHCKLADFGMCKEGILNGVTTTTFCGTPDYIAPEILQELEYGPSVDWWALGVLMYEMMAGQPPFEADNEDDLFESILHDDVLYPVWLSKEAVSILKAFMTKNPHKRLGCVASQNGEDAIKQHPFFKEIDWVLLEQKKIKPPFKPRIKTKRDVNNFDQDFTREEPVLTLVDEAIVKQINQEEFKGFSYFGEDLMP

[5] = target: Protein kinase C delta type (Homo sapiens) (UniProt Q05655); test: Selectivity interaction (KinomeScan (DiscoverX)) EUB0001079a PRKCD; settings: at 1 µM
[6] = target: T3, Dual serine/threonine and tyrosine protein kinase (Homo sapiens) (UniProt Q6XUX3); test: Selectivity interaction (KinomeScan (DiscoverX)) EUB0000045b DSTYK
T3 sequence (whole entry): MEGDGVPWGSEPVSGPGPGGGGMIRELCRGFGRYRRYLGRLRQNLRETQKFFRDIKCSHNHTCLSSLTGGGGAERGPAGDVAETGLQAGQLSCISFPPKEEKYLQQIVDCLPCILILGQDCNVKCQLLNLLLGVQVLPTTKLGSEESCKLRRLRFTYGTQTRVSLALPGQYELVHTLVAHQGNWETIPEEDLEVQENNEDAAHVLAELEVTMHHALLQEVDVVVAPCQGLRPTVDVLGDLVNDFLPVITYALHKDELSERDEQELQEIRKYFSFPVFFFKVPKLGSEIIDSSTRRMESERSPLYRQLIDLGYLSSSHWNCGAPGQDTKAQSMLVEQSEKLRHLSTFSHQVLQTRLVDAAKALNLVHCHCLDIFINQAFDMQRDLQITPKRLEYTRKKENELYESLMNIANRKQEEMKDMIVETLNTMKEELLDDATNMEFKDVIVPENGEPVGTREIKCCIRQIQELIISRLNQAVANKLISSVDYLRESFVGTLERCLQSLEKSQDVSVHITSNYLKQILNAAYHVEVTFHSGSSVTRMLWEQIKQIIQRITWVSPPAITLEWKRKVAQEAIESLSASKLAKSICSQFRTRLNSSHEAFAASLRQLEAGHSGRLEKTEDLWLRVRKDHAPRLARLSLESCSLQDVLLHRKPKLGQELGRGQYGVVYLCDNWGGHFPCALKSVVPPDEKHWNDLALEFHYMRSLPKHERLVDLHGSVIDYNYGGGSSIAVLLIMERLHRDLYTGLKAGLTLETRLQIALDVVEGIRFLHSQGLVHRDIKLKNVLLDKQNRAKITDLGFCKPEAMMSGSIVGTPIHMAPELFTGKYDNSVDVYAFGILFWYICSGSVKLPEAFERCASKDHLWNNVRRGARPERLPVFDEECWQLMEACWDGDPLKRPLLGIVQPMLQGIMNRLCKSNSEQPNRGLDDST

[7] = target: Calcium/calmodulin-dependent protein kinase kinase 1 (Homo sapiens) (UniProt Q8N5S9); test: Selectivity interaction (KinomeScan (DiscoverX)) EUB0000618a CAMKK1; settings: at 10 µM
[8] = target: Microtubule-associated serine/threonine-protein kinase 1 (Homo sapiens) (UniProt Q9Y2H9); test: Selectivity interaction (KinomeScan (DiscoverX)) EUB0000607a MAST1; settings: at 10 µM
Chain of Microtubule-associated serine/threonine-protein kinase 1 (Homo sapiens) (Q9Y2H9 whole entry, looked up): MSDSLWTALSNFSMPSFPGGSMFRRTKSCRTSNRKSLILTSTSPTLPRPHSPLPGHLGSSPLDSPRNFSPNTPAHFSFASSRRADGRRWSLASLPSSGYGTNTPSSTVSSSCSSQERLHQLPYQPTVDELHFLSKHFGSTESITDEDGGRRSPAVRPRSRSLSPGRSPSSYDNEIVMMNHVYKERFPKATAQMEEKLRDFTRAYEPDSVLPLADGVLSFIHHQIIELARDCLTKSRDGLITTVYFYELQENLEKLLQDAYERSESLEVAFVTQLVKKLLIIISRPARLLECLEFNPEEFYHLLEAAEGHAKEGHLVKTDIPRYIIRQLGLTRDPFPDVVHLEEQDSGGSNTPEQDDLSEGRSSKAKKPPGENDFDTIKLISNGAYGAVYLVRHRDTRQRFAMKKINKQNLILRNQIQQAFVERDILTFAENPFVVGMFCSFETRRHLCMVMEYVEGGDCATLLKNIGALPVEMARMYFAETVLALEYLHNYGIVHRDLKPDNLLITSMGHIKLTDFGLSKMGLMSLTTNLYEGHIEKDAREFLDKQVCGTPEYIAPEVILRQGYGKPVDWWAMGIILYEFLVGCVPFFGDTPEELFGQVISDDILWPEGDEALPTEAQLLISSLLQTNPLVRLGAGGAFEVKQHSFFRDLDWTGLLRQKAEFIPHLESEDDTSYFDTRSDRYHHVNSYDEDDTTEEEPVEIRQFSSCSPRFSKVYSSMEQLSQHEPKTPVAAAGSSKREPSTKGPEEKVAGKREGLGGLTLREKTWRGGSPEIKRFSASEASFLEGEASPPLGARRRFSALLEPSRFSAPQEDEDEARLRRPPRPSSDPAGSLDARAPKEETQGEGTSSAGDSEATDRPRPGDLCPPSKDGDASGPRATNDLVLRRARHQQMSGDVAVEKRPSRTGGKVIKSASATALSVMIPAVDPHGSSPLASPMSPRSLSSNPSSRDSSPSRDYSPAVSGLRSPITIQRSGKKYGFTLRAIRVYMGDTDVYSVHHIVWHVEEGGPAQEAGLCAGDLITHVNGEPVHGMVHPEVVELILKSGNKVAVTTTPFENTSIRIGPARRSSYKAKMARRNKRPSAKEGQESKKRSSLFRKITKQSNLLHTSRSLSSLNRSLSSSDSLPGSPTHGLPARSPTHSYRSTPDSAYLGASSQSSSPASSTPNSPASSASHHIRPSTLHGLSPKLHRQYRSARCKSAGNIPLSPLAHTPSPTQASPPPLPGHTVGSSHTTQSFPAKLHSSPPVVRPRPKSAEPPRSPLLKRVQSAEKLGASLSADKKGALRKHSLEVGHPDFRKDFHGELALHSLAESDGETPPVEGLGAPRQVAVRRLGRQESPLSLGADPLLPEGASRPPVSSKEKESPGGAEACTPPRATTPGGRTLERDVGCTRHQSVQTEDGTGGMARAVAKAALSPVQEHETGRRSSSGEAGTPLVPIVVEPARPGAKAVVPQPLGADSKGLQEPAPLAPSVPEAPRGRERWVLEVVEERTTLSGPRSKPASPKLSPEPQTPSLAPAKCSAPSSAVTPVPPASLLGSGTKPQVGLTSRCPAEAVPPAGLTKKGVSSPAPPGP

Chain of Casein kinase I isoform alpha (P48729 2-337 limits assumed): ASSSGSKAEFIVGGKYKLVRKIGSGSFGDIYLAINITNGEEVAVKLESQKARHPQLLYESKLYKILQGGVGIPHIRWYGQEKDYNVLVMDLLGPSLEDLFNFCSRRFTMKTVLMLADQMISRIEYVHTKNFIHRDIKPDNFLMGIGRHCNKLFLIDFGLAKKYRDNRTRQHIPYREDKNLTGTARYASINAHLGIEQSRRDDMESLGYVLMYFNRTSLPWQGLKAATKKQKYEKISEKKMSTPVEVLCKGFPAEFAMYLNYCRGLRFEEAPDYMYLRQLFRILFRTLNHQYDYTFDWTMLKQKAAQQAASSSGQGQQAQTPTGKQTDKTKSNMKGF
Chain of Calcium/calmodulin-dependent protein kinase kinase 1 (Homo sapiens) (Q8N5S9 whole entry, looked up): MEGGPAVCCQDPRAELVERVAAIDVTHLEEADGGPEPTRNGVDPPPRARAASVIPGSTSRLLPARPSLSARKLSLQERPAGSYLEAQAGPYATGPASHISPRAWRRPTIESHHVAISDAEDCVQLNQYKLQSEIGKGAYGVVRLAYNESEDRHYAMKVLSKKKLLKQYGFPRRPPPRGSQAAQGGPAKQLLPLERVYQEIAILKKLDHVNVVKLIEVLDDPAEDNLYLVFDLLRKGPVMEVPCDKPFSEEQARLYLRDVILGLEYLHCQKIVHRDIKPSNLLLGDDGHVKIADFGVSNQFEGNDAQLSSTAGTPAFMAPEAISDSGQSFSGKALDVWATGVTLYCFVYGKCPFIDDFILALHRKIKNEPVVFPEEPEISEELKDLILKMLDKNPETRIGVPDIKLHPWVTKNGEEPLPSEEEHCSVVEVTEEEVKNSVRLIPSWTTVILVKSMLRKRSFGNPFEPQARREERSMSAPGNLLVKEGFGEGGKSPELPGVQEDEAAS
Chain of Protein kinase C delta type (Homo sapiens) (Q05655 whole entry, looked up): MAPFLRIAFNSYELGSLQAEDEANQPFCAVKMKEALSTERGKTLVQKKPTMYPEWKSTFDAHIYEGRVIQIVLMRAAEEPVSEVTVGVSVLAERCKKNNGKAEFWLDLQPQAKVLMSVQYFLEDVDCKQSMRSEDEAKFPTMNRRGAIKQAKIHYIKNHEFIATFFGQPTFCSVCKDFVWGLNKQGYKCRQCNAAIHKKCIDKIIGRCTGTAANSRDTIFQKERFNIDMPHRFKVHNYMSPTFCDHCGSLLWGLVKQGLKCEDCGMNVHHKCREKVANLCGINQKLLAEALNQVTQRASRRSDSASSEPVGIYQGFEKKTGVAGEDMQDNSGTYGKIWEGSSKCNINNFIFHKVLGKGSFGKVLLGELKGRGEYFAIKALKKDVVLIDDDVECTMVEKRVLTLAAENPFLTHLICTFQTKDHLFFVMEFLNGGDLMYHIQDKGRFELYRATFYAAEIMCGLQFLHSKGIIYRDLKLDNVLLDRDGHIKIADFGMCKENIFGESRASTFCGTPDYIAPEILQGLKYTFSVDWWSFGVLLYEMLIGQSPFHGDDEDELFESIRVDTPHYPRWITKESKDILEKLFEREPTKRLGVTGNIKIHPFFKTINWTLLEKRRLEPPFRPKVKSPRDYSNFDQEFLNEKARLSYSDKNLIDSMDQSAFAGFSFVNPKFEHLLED
Chain of Non-receptor tyrosine-protein kinase TYK2 (P29597 whole entry): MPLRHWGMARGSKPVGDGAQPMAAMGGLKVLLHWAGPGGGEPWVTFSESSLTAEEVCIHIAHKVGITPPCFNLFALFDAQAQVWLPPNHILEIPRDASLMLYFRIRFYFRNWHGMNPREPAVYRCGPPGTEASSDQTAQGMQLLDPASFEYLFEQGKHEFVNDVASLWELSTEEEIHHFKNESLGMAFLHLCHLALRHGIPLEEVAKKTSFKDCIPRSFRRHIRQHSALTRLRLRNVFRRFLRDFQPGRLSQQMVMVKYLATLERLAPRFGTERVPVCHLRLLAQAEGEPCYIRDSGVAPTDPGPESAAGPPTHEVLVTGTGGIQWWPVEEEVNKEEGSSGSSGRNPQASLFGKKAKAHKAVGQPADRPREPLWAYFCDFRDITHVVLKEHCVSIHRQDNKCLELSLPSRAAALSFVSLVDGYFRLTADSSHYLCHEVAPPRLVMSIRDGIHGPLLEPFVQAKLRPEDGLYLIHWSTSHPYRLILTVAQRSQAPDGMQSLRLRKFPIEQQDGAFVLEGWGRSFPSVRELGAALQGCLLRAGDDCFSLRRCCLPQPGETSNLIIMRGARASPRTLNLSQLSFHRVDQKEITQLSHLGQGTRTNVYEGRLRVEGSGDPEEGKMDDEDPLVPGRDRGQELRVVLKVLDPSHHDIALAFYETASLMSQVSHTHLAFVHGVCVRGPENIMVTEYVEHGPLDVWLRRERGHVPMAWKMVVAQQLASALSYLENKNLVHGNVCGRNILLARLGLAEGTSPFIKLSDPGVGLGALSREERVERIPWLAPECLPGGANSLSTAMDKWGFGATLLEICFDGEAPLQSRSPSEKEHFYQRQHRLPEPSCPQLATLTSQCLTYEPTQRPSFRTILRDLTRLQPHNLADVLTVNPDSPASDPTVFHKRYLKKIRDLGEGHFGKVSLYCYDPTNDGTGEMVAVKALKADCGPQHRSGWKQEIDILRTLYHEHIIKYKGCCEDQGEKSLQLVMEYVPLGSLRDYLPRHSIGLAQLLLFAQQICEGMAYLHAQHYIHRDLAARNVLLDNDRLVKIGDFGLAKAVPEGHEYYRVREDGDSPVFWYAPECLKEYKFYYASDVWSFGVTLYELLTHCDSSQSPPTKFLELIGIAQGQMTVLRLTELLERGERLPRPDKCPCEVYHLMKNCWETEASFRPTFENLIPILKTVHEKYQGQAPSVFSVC

- % of inhibition [1]: -3.6%
- % of inhibition [2]: -152%
SMILES: CC[C@@H]1[C@H](F)C(=O)N[C@@H]1COc1nccc2cc(C(N)=O)c(OC)cc12 [ZIMLOVISERTIB]

- IC50 [3]: > 10 µM
SMILES: CCC(=O)N1CC[C@H](Nc2ncnc3c2CN(c2cnc(OC)c(C(F)(F)F)c2)CC3)C1 [LENIOLISIB]

- % of control [4]: -8.31%
SMILES: Cn1cc(-n2cnc3c(NCc4nc5cc(Cl)c(Cl)cc5[nH]4)nc(N4CCOCC4)nc32)cn1

SMILES: Nc1cnc(N2CCc3cc(S(=O)(=O)Nc4c(F)cc(Cl)cc4F)cc(N4CCCC4=O)c32)nc1 [TP-020n]
- % of control [5]: 86%

SMILES: C=CC(=O)Nc1cc(-n2c(=O)ccc3cnc4ccc(-c5ccc(NS(C)(=O)=O)cc5)cc4c32)ccc1C
- % of control ([6]; at 1 µM): 100%
- % of control ([6]; at 10 µM): 100%

SMILES: O[C@H]1CC[C@H](Nc2ncc3nc(Nc4c(F)cc(F)cc4F)n([C@H]4CCOC4)c3n2)CC1
- % of control [7]: 100%

SMILES: CNC(=O)Nc1ccc(-c2nc(N3CC4CCC(C3)O4)c3cnn(C4CCC5(CC4)OCCO5)c3n2)cc1
- % of control [8]: 95%
